Data as given in patent US12604891B2, “Antifoulant marine structures compositions and methods thereof” (THE TEXAS A&M UNIVERSITY SYSTEM, priority 2020, dated 2026).

What was measured:
Type in all cases: cell-based
[1] = tested on: Escherichia coli; experiment: Agar diffusion test, cytotoxic potential (ASTM F895); conditions: antimicrobial composition in wells punched into inoculated agar, 78° F., 24 hours; FIG. 1
Description: The instant example evaluated various antimicrobial compositions for cytotoxic potential. Briefly, ASTM […] is a test method useful for assessing the cytotoxic potential of new materials and formulations and as part of a quality control program for established medical devices and components. Qualitative results of the potency of various antimicrobial compositions were evaluated using this test method. […] The testing wells were then compared to one another based on the zone of inhibition of cell or spore growth created for each well. Petri dishes were place in an incubator at 78° F. for 24 hours. The zones of inhibition around each well were then compared and the best two antimicrobial compositions from this example were utilized in subsequent testing.

[2] = tested on: Staphylococcus aureus; experiment: Antimicrobial activity under dynamic contact conditions (ASTM E2149-13a), dynamic shaker test, compositions comprising a polymer; conditions: FIG. 3
Description: The instant example evaluated various antifoulant compositions for antimicrobial activity under dynamic contact conditions. Briefly, ASTM E2149-13a is a test standard for determining antimicrobial activity of antimicrobial compositions under dynamic contact conditions. The 2×2 inch antifoulant composition samples from Example 1 and Example 2 were placed in sterilized 500 mL flasks with 100 mL of distilled water.
For antifoulant compositions comprising a polymer, Staphylococcus aureus (gram-positive bacteria) were added to each flask at 3×10^6 VC/mL. For antifoulant compositions comprising a composite material, Escherichia coli (gram-negative bacteria) were added to each flask at approximately 1×10^6 cells/mL. Three samples (0.1 mL each) were taken immediately from each flask and spread on TSA plates. The flasks were incubated in a 37° C. shaking incubator at 200 rpm. Three samples (0.1 mL each) were removed and plated at 1 hour intervals for three hours. Plates were left for growth at 25° C. for 60 hours. Colonies were counted using Sphere Flash and the average VC/mL or colony forming units (CFU) were documented.

[3] = tested on: gram-positive and gram-negative bacteria; experiment: Laboratory testing, overall comparison of antimicrobials; conditions: summary
Description: E. coli is a gram-negative bacteria that has a more complicated cell wall structure which makes this bacteria more difficult to penetrate and mitigate. In contrast, S. aureus is a gram positive bacteria and is naturally more susceptible to antimicrobials and, thus, may be easier to control.

Compound	inhibition of bacterial growth per visible zone of inhibition around the sample [1]	antibacterial efficacy ([2]; S. aureus, dynamic fluid conditions, antifoulant composition comprising a polymer (HDPE)) [%]	relative antimicrobial efficacy among tested antimicrobials ([2]; antimicrobials in antifoulant compositions comprising a polymer (HDPE), dynamic flow conditions)	efficacies and performance with both gram-positive and gram-negative bacteria [3]
[O]=[Zn] [zinc oxide]	demonstrated efficacy in inhibiting bacterial growth	–	–	–
zinc pyrithione	demonstrated efficacy in inhibiting bacterial growth	99.9	most efficacious	highest efficacies and performance
